{"source": "patent US20220226265A1", "about": "“METHODS OF CONTROLLING MYOCARDIAL BLOOD FLOW” (UNIVERSITY OF LOUISVILLE RESEARCH FOUNDATION, INC., priority 2021, published 2022)", "key": {"[1]": {"test_system": "coronary arterial myocytes", "assay": "Perforated whole cell patch clamp of outward K+ current", "assay_type": "cell-based, mouse", "experimental": "In situ proximity ligation: Arterial myocytes were isolated from coronary and mesenteric arteries using enzymatic digestion procedures, similar to those described previously. Briefly, arteries were incubated in digestion buffer containing (in mM): 140 NaCl, 5 KCl, 2 MgCl2, 10 HEPES, 10 glucose, pH 7.4 at 37° C. for 1 min. […]\nPatch clamp electrophysiology: Arterial myocytes were isolated from coronary arteries as described above. […] Total outward K^+ currents (IK) were recorded from coronary arterial myocytes using the perforated whole cell configuration of the patch clamp technique in voltage clamp mode using an Axopatch 200B patch clamp amplifier (Axon Instruments). […] K^+ currents were recorded from each cell in the absence and presence of L-lactate (10 mM) in bath solution with and without psora-4 (500 nM). […] Patch clamp data were analyzed suing Clampfit 9 software (Axon Instruments). IK is expressed as peak currents reached during the period of depolarization normalized by cell capacitance and expressed as pA/pF."}, "[2]": {"test_system": "isolated coronary arteries", "assay": "L-lactate-induced vasodilation of preconstricted isolated coronary arteries", "parameters": "species or system mouse", "experimental": "Arterial diameter measurements: Primary and secondary branches of the left anterior descending coronary arteries and third and fourth order branches of mesenteric arteries and were dissected and kept in ice-cold isolation buffer consisting of (in mM): 134 NaCl, 6 KCl, 1 MgCl2, 2 CaCl2, 10 HEPES, 7 D-glucose, pH 7.4. Isolated arteries were used for arterial diameter measurements within 8 h after dissection. Isolated arteries were cleaned of connective tissue and cannulated on glass micropipettes mounted in a linear alignment single vessel myograph chamber (Living Systems Instrumentation, St. Albans, Vt., USA). For some experiments, the vascular endothelium was functionally ablated by passage of air through the lumen (˜30 s) during the cannulation procedure. After cannulation, the chamber was placed on an inverted microscope and arteries were equilibrated at 37° C. and intravascular pressure of 20 mmHg, maintained with a pressure servo control unit (Living Systems Instrumentation, St. Albans, Vt., USA) under continuous perfusion (3-5 ml·min^−1) of physiological saline solution (PSS) consisting of (in mM): 119 NaCl, 4.7 KCl, 1.2 KH2PO4, 1.2 MgCl2, 7 D-glucose, 24 NaHCO3, 2 CaCl2, maintained at pH 7.35-7.45 via aeration with gas mixture containing 5% CO2 and 20% O2 (balanced with N2). Following an equilibration period (45-60 min), lumenal diameter was continuously monitored and recorded with a charge coupled device (CCD) camera and edge detection software (IonOptix, Milton, Mass., USA). […] Bath O2 levels were measured using a dissolved oxygen meter (World Precision Instruments, Sarasota, Fla., USA). At the end of each experiment, the maximum passive diameter was measured in the presence of Ca^2+-free PSS containing the L-type Ca^2+ channel inhibitor nifedipine (1 μM) and adenylyl cyclase activator forskolin (0.5 μM), as described previously. Vasoconstriction is expressed as a decrease in arterial diameter relative to the maximum passive diameter at a given intravascular pressure. […]"}, "[3]": {"test_system": "isolated mesenteric arteries", "assay": "Vasodilation of preconstricted isolated mesenteric arteries", "parameters": "species or system mouse", "experimental": "Arterial diameter measurements: Primary and secondary branches of the left anterior descending coronary arteries and third and fourth order branches of mesenteric arteries and were dissected and kept in ice-cold isolation buffer consisting of (in mM): 134 NaCl, 6 KCl, 1 MgCl2, 2 CaCl2, 10 HEPES, 7 D-glucose, pH 7.4. Isolated arteries were used for arterial diameter measurements within 8 h after dissection. Isolated arteries were cleaned of connective tissue and cannulated on glass micropipettes mounted in a linear alignment single vessel myograph chamber (Living Systems Instrumentation, St. Albans, Vt., USA). For some experiments, the vascular endothelium was functionally ablated by passage of air through the lumen (˜30 s) during the cannulation procedure. After cannulation, the chamber was placed on an inverted microscope and arteries were equilibrated at 37° C. and intravascular pressure of 20 mmHg, maintained with a pressure servo control unit (Living Systems Instrumentation, St. Albans, Vt., USA) under continuous perfusion (3-5 ml·min^−1) of physiological saline solution (PSS) consisting of (in mM): 119 NaCl, 4.7 KCl, 1.2 KH2PO4, 1.2 MgCl2, 7 D-glucose, 24 NaHCO3, 2 CaCl2, maintained at pH 7.35-7.45 via aeration with gas mixture containing 5% CO2 and 20% O2 (balanced with N2). Following an equilibration period (45-60 min), lumenal diameter was continuously monitored and recorded with a charge coupled device (CCD) camera and edge detection software (IonOptix, Milton, Mass., USA). Experiments were performed to examine effects of step-wise increases in intravascular pressure (20-100 mmHg), elevated [K^+]o (via isosmotic replacement of KCl for NaCl), the synthetic thromboxane A2 analogue U46619 (Tocris Bioscience, Minneapolis, Minn., USA), adenosine (Sigma Aldrich, St. Louis, Mo., USA), or L-lactate (Sigma Aldrich, St. Louis, Mo., USA). For some experiments, hypoxic bath conditions were generated by perfusion of 1 mM Na2S2O4-containing PSS aerated with 5% CO2 (balance N2; 0% O2). Bath O2 levels were measured using a dissolved oxygen meter (World Precision Instruments, Sarasota, Fla., USA). At the end of each experiment, the maximum passive diameter was measured in the presence of Ca^2+-free PSS containing the L-type Ca^2+ channel inhibitor nifedipine (1 μM) and adenylyl cyclase activator forskolin (0.5 μM), as described previously. Vasoconstriction is expressed as a decrease in arterial diameter relative to the maximum passive diameter at a given intravascular pressure. Changes in diameter (e.g., vasodilation) are normalized to differences from baseline and maximum passive diameters for each experiment."}, "[4]": {"test_system": "isolated coronary arteries", "assay": "Hypoxia-induced vasodilation of isolated pressurized coronary arteries", "parameters": "species or system mouse", "details": "psora-4 500 nM; WT coronary arteries, 60 mmHg, pre-constricted with 100 nM U46619", "quoted_text": "Arterial diameter measurements: Primary and secondary branches of the left anterior descending coronary arteries and third and fourth order branches of mesenteric arteries and were dissected and kept in ice-cold isolation buffer consisting of (in mM): 134 NaCl, 6 KCl, 1 MgCl2, 2 CaCl2, 10 HEPES, 7 D-glucose, pH 7.4. Isolated arteries were used for arterial diameter measurements within 8 h after dissection. Isolated arteries were cleaned of connective tissue and cannulated on glass micropipettes mounted in a linear alignment single vessel myograph chamber (Living Systems Instrumentation, St. Albans, Vt., USA). […] Following an equilibration period (45-60 min), lumenal diameter was continuously monitored and recorded with a charge coupled device (CCD) camera and edge detection software (IonOptix, Milton, Mass., USA). […] Bath O2 levels were measured using a dissolved oxygen meter (World Precision Instruments, Sarasota, Fla., USA). At the end of each experiment, the maximum passive diameter was measured in the presence of Ca^2+-free PSS containing the L-type Ca^2+ channel inhibitor nifedipine (1 μM) and adenylyl cyclase activator forskolin (0.5 μM), as described previously. Vasoconstriction is expressed as a decrease in arterial diameter relative to the maximum passive diameter at a given intravascular pressure. […]"}}}
{"smiles": "C[C@H](O)C(=O)O", "note": "[L-lactate]", "values": [{"measurement": "outward K+ current density", "setting": "[1]; 10 mM L-lactate in the bath, 1-3 min", "value": "significant increase"}, {"measurement": "vasodilation in response to external L-lactate", "setting": "[2]; L-lactate 5-20 mM, WT coronary arteries pre-constricted with 100 nM U46619", "value": "step-wise vasodilation"}, {"measurement": "L-lactate-induced vasodilation", "setting": "[2]; coronary arteries isolated from Kvβ2−/− mice", "value": "abolished"}, {"measurement": "dilation on application of L-lactate", "setting": "[3]; L-lactate 5-20 mM, WT mesenteric arteries preconstricted with 100 nM U46619", "value": "robust and reversible dilation"}, {"measurement": "L-lactate-mediated vasodilation", "setting": "[3]; endothelium-denuded mesenteric arteries, 10 mM L-lactate", "value": "insensitive to endothelial denudation"}, {"measurement": "L-lactate-mediated vasodilation", "setting": "[3]; mesenteric arteries constricted with elevated external K+ (60 mM) rather than U46619", "value": "abolished"}, {"measurement": "dilatory response to L-lactate", "setting": "[3]; mesenteric arteries from Kvβ1.1−/− mice vs corresponding WT", "value": "not significantly different"}, {"measurement": "vasodilation in response to extracellular L-lactate", "setting": "[3]; mesenteric arteries from SM22α-rtTA:TRE-Kvβ1 vs single transgenic control mice", "value": "significantly blunted vasodilation"}, {"measurement": "vasodilation in response to L-lactate", "setting": "[3]; mesenteric arteries with loss of Kvβ2", "value": "eliminated"}]}
{"smiles": "Nc1ncnc2c1ncn2[C@@H]1O[C@H](CO)[C@@H](O)[C@H]1O", "note": "[adenosine]", "values": [{"measurement": "vasodilation induced by adenosine", "setting": "[3]; adenosine 1-100 μM, Kvβ1.1−/− or Kvβ2−/− arteries vs corresponding WT", "value": "not significantly different"}]}
{"smiles": "O=c1ccc2c(OCCCCc3ccccc3)c3ccoc3cc2o1", "note": "[psora-4]", "values": [{"measurement": "attenuation of hypoxia-induced vasodilation", "setting": "[4]", "value": "~58", "unit": "%"}, {"measurement": "effect on L-lactate-induced increase in outward K+ current density", "setting": "[1]; psora-4 500 nM, 10 mM L-lactate", "value": "abolished"}, {"measurement": "effect on L-lactate-induced vasodilation", "setting": "[2]; psora-4 500 nM, L-lactate 5-20 mM, WT coronary arteries", "value": "abolished"}, {"measurement": "effect on vasodilation in response to L-lactate", "setting": "[3]; psora-4 500 nM, WT mesenteric arteries", "value": "eliminated"}]}
